Results on 26 compounds are retold here after patent US11932630B2, “Heteroaryl aminopropanol derivatives” (NOVARTIS AG, priority 2021, dated 2024).

Like-named read-outs stand apart in the source and are kept apart here.

For one assay, the target named is T1, human LTA4H (Homo sapiens, UniProt P09960).
T1 sequence (P09960 1-611): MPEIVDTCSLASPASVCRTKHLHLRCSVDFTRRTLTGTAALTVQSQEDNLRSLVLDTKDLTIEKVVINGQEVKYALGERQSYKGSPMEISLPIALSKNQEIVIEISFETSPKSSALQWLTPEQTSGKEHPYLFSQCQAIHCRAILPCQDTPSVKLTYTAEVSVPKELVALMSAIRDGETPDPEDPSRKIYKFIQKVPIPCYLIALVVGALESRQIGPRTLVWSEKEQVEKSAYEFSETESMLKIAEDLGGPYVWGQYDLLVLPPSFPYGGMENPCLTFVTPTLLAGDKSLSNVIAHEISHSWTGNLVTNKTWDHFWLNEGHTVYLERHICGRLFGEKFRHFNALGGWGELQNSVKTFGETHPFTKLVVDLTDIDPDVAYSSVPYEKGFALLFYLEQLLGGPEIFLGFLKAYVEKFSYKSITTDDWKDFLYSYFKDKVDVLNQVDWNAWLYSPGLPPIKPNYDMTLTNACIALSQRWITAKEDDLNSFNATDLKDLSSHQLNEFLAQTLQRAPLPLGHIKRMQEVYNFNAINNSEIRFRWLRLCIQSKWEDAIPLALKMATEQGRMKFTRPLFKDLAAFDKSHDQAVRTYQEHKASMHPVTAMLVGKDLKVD
In words: Human LTA4H enzyme assay (Arg-AMC substrate). Particulars: Arg-AMC 600 μM, 9 nM human LTA4H, 15 min pre-incubation; mean values of at least 3 measurements; read-out: ArgAMC IC50. It counts as biochemical. The procedure: a) Human LTA4H Enzyme Assay:
[…] (LTA4H) catalyzes the vinylogous hydrolysis of the epoxide, leukotriene A4 (LTA4) into the pro-inflammatory mediator LTB4.
For compound testing, compounds are delivered as 10 mM stock solutions in 90% DMSO (10% water) in matrix tubes. […] A final substrate concentration of 600 μM, which is around the KM value of Arg-AMC, at a final enzyme concentration of 9 nM is chosen. Upon addition of the substrate, the plate is immediately placed in a fluorescence reader and the fluorescence is measured every 10 minutes for 60 minutes using the filter setting λ excitation=380 nm and A emission=460 nm. […] Raw data is converted to rate (moles per minute) using the AMC calibration curve calculated from the AMC standards. The data is analyzed in GraphPad Prism (GraphPad software Inc.) using non-linear regression to determine IC50 values of LTA4H inhibitors.

The subject of assay [1] is LTB4 biosynthesis in human whole blood. Put plainly: Human whole blood assay (hWB), inhibition of LTB4 biosynthesis. It counts as cell-based. Particulars: read-out: hWB IC50. The procedure:
b) Human Whole Blood Assay:
Compounds are tested in a human whole blood assay (hWB) to test their ability to inhibit LTB4 biosynthesis in a human cellular system. To this end, fresh blood is collected in heparinized vacutainers by venipuncture from volunteers. Blood is diluted 1:3 with RPM (Roswell Park Memorial Institute) medium and aliquots of 200 μL are transferred to 96-well round bottom cell culture plates. For compound testing, compounds are delivered as 10 mM stock solutions in 90% DMSO in matrix tubes. […] 4 μL of compound dilution or vehicle is added to 200 μL of blood and incubated for 4 hours at 37° C. in a humidified incubator. […] Incubation is terminated by centrifugation at 300 g for 10 min at 22° C. Plasma supernatant is taken and transferred to a 96 well plate for eicosanoid determination by ELISA (Assay designs) according to the manufacturer's protocol after 1:20 dilution in assay buffer. The data is analyzed in GraphPad Prism (GraphPad software Inc.) using non-linear regression to determine IC50 values of LTA4H inhibitors.

Where [2] appears, read: human blood diluted 1:3, 4 hours with compound, 10 μg/ml A23187 for 15 min, eicosanoid by ELISA.

Consider `N[C@H](CO)Cc1nc(-c2cccc([C@@H]3COc4ccccc4O3)c2)no1` [Example 15, (S)-2-amino-3-(3-(3-((R)-2,3-dihydrobenzo[b][1,4]dioxin-2-yl)phenyl)-1,2,4-oxadiazol-5-yl)propan-1-ol], for which the IC50 on human LTA4H is 2.9 nM; in assay [1] (setting [2]), 79 nM.

As for `N[C@@H](CO)Cn1nnc(-c2ccc(Oc3ccc(-c4ccn[nH]4)cn3)cc2)n1` [Example 19, (R)-3-(5-(4-((5-(1H-pyrazol-3-yl)pyridin-2-yl)oxy)phenyl)-2H-tetrazol-2-yl)-2-aminopropan-1-ol], the figures for the IC50 (on human LTA4H; in assay [1] (setting [2])) were 4.9 nM and 65 nM, respectively.

As to `N[C@H](CO)Cn1nnc(-c2ccc(Oc3ccc(Br)cn3)cc2)n1` [Example 33, (S)-2-Amino-3-(5-(4-((5-bromopyridin-2-yl)oxy)phenyl)-2H-tetrazol-2-yl)propan-1-ol], the results for the IC50 (on human LTA4H; in assay [1] (setting [2])) were 2.4 nM and 290 nM, respectively.

With `N[C@H](CO)Cc1nc(-c2cccc(Oc3ccc(C(F)(F)F)cn3)c2)no1` [Example 10, (S)-2-amino-3-(3-(3-((5-(trifluoromethyl)pyridin-2-yl)oxy)phenyl)-1,2,4-oxadiazol-5-yl)propan-1-ol], the IC50 at human LTA4H was 6.3 nM; in assay [1] (setting [2]) it was 141 nM.

In the case of `N[C@H](CO)Cc1nnn(-c2ccc(Oc3ncc(-c4ccn[nH]4)cc3F)cc2)n1` [Example 40, (S)-2-amino-(2-(4-((3-fluoro-5-(1H-pyrazol-5-yl)pyridin-2-yl)oxy)phenyl)-2H-tetrazol-5-yl)propan-1-ol], the IC50 on human LTA4H stood at 2.6 nM; in assay [1] (setting [2]) it was 62 nM.

In the case of `N[C@H](CO)Cn1ccc(-c2ccc(Oc3ncc(Cl)cc3F)cn2)n1` [Example 23, (S)-2-amino-3-(3-(5-((5-chloro-3-fluoropyridin-2-yl)oxy)pyridin-2-yl)-1H-pyrazol-1-yl)propan-1-ol], the results for the IC50 (at human LTA4H; in assay [1] (setting [2])) were 37.6 nM and 753 nM, respectively.

As to `N[C@H](CO)Cn1ccc(-c2ccc(Oc3ccc(-c4ccn[nH]4)cn3)cc2)n1` [Example 36], the IC50 stood at 2.9 nM at human LTA4H and 60 nM in assay [1] (Homo sapiens).

With `N[C@H](CO)Cc1nc(-c2ccc(Oc3ccc(C(F)(F)F)cn3)cc2)no1` [Example 04, (S)-2-amino-3-(3-(4-((5-(trifluoromethyl)pyridin-2-yl)oxy)phenyl)-1,2,4-oxadiazol-5-yl)propan-1-ol], the IC50 at human LTA4H came out at 11.8 nM; in assay [1] (setting [2]) it was 327 nM.

In the case of `NC(CO)Cc1nnn(-c2ccc(Oc3ncc(Cl)cc3F)cc2)n1` (racemic) [Example 39, 2-Amino-3-(2-(4-((5-chloro-3-fluoropyridin-2-yl)oxy)phenyl)-2H-tetrazol-5-yl)propan-1-ol], the figures for the IC50 (on human LTA4H; in assay [1] (setting [2])) were 2.2 nM and 63 nM, respectively.

`N[C@H](CO)Cn1nnc(-c2cccc([C@@H]3COc4cccnc4O3)c2)n1` [Example 14, (S)-2-amino-3-(5-(3-((R)-2,3-dihydro-[1,4]dioxino[2,3-b]pyridin-3-yl)phenyl)-2H-tetrazol-2-yl)propan-1-ol]: the IC50 on human LTA4H stood at 2.3 nM; in assay [1] (setting [2]), 39 nM.

As to `N[C@H](CO)Cn1nnc(-c2ccc(Oc3ncc(Cl)cc3F)cc2)n1` [Example 29, (S)-2-Amino-3-(5-(4-((5-chloro-3-fluoropyridin-2-yl)oxy)phenyl)-2H-tetrazol-2-yl)propan-1-ol], in assay [1] (setting [2]), the IC50 turned out to be 162 nM.

With `N[C@H](CO)Cc1nc(-c2ccc(Oc3ccc(-c4ccn[nH]4)cn3)cc2)no1` [Example 13, (S)-3-(3-(4-((5-(1H-Pyrazol-5-yl)pyridin-2-yl)oxy)phenyl)-1,2,4-oxadiazol-5-yl)-2-aminopropan-1-ol], the IC50 in assay [1] (setting [2]) came to 51 nM.

`N[C@H](CO)Cc1nc(-c2cccc([C@H]3COc4ccccc4O3)c2)no1` [Example 01, (S)-2-amino-3-(3-(3-((S)-2,3-dihydrobenzo[b][1,4]dioxin-2-yl)phenyl)-1,2,4-oxadiazol-5-yl)propan-1-ol]: the IC50 in assay [1] (setting [2]) turned out to be 91 nM.

For the compound `N[C@H](CO)Cn1nnc(-c2ccc(Oc3ncc(-c4ncco4)cc3F)cc2)n1` [Example 38, (2S)-2-amino-3-[5-(4-[[3-fluoro-5-(1,3-oxazol-2-yl)pyridin-2-yl]oxy]phenyl)-2H-1,2,3,4-tetrazol-2-yl]propan-1-ol], the IC50 on human LTA4H worked out at 7.4 nM.

For the compound `N[C@H](CO)Cn1nnc(-c2ccc(Oc3ccc(C4CC4)cn3)cc2)n1` [Example 28, (S)-2-Amino-3-(5-(4-((5-cyclopropylpyridin-2-yl)oxy)phenyl)-2H-tetrazol-2-yl)propan-1-ol], the IC50 on human LTA4H was determined as 6.2 nM; in assay [1] (setting [2]) it was 504 nM.

As for `N[C@H](CO)Cc1nc(-c2ccc(Oc3ccc(OC(F)F)cn3)cc2)no1` [Example 05, (S)-2-amino-3-(3-(4-((5-(difluoromethoxy)pyridin-2-yl)oxy)phenyl)-1,2,4-oxadiazol-5-yl)propan-1-ol], the values for the IC50 (on human LTA4H; in assay [1] (setting [2])) were 28.3 nM and 1850 nM, respectively.

In the case of `N[C@H](CO)Cn1nnc(-c2ccc(Oc3ccc(Cl)cc3)nc2)n1` [Example 35, (S)-2-Amino-3-(5-(6-(4-chlorophenoxy)pyridin-3-yl)-2H-tetrazol-2-yl)propan-1-01], the IC50 on human LTA4H was determined as 15.8 nM.

With `N[C@H](CO)Cc1nc(-c2cccc([C@@H]3COc4cccnc4O3)c2)no1` [Example 11, (S)-2-amino-3-(3-(3-((R)-2,3-dihydro-[1,4]dioxino[2,3-b]pyridin-3-yl)phenyl)-1,2,4-oxadiazol-5-yl)propan-1-ol], in assay [1] (setting [2]), the IC50 turned out to be 44 nM.

With `N[C@H](CO)Cn1nnc(-c2ccc(Oc3ccc(-c4ccn[nH]4)cn3)cc2)n1` [Example 20, (S)-3-(5-(4-((5-(1H-pyrazol-3-yl)pyridin-2-yl)oxy)phenyl)-2H-tetrazol-2-yl)-2-aminopropan-1-ol], the IC50 on human LTA4H is 3.2 nM; in assay [1] (setting [2]), 75 nM.

As for `CC(O)[C@@H](N)Cc1nc(-c2ccc(Oc3ncc(Br)cc3F)cc2)no1` (mixture of isomers) [Example 18, (3S)-3-amino-4-(3-(4-((5-bromo-3-fluoropyridin-2-yl)oxy)phenyl)-1,2,4-oxadiazol-5-yl)butan-2-ol], the IC50 was 6.1 nM on human LTA4H and 343 nM in assay [1] (setting [2]).

As for `N[C@@H](CO)Cn1nnc(-c2ccc(Oc3ncc(Cl)cc3F)cc2)n1` [Example 30, (R)-2-Amino-3-(5-(4-((5-chloro-3-fluoropyridin-2-yl)oxy)phenyl)-2H-tetrazol-2-yl)propan-1-ol], the IC50 in assay [1] (setting [2]) stood at 69 nM.

Turning to `N[C@H](CO)Cn1ccc(-c2ccc(Oc3ncc(-c4cc[nH]n4)cc3F)cc2)n1` [Example 37, (S)-2-amino-3-(3-(4-((3-fluoro-5-(1H-pyrazol-5-yl)pyridin-2-yl)oxy)phenyl)-1H-pyrazol-1-yl)propan-1-ol], the figures for the IC50 (at human LTA4H; in assay [1] (setting [2])) were 2.6 nM and 47 nM, respectively.

Regarding `N[C@H](CO)Cc1nc(-c2cccc(Oc3ccc(OC(F)F)cn3)c2)no1` [Example 03, (S)-2-amino-3-(3-(3-((5-(difluoromethoxy)pyridin-2-yl)oxy)phenyl)-1,2,4-oxadiazol-5-yl)propan-1-ol], the IC50 in assay [1] (setting [2]) worked out at 100 nM.

Take `N[C@H](CO)Cn1ccc(-c2cccc(Oc3ncc(Cl)cc3F)c2)n1` [Example 24, (S)-2-amino-3-(3-(3-((5-chloro-3-fluoropyridin-2-yl)oxy)phenyl)-1H-pyrazol-1-yl)propan-1-ol]: the IC50 in assay [1] (setting [2]) is 379 nM.

As to `N[C@H](CO)Cn1cc(-c2ccc(Oc3ncc(Cl)cc3F)cc2)cn1` [Example 25, (S)-2-amino-3-(4-(4-((5-chloro-3-fluoropyridin-2-yl)oxy)phenyl)-1H-pyrazol-1-yl)propan-1-ol], on human LTA4H, the IC50 amounted to 160 nM.

`N[C@H](CO)Cc1nc(-c2ccc(Oc3ncc(-c4ccn[nH]4)cc3F)cc2)no1` [Example 07]: the IC50 in assay [1] (setting [2]) was determined as 117 nM.

Broadly, the IC50 is the point on the concentration scale where inhibition reaches its midpoint.
